From patent publication US10683297B2 (Sunshine Lake Pharma Co., Ltd., priority 2017, dated 2020) come the findings set out here.

Series [1] in a line: Pharmacokinetics after intravenous and oral administration in rats. It is filed as in vivo. As to conditions: for Clearance (CL) after iv dosing / AUC(0-t) / half-life / Vd: dose 1 mg/kg (Ex. 9: 0.6, Ex. 18: 0.5, Ex. 50: 0.96 mg/kg), iv dosing; for AUC(0-t) / half-life / Vd / bioavailability: rat, plasma; for Vd: read-out: Vss; for bioavailability: oral (generally 5 or 10 mg/kg) versus iv dosing, read-out: F (oral bioavailability). A digest of the protocol: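 Rats dosed i.v. (about 0.5, 0.6, 1 or 2 mg/kg) or p.o. (5 or 10 mg/kg) as solution, suspension or capsule. Plasma sampled over 24 h and quantified by LC/MS/MS in MRM mode with ESI.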

Series [2] addresses T1, JAK2 (h) (Homo sapiens, UniProt O60674).
T1 construct: purchased Millipore UK Ltd (assays performed there as a service)
As to the kind of experiment: JAK2 (h) kinase assay. It is filed as biochemical. As to conditions: [γ-33P-ATP] 10 μM or KM values; 40 minutes at room temperature. The method, then:
Kinase assays can be performed by measurement of incorporation of γ-^33P ATP into immobilized myelin basic protein (MBP). High binding white 384 well plates (Greiner) are coated with MBP (Sigma # M-1891) by incubation of 60 μL well of 20 μg/mL MBP in Tris-buffered saline (TBS; 50 mM Tris pH 8.0, 138 mM NaCl, 2.7 mM KCl) for 24 h at 4° C. Plates are washed 3× with 100 μL TBS. Kinase reactions are carried out in a total volume of 34 μL in kinase buffer (according to the need to make, for example, 5 mM Hepes pH 7.6, 15 mM NaCl, 0.01% bovine gamma globulin (Sigma #1-5506), 10 mM MgCl2, 1 mM DTT, 0.02% TritonX-100). Compound dilutions are performed in DMSO and added to assay wells to a final DMSO concentration of 1%. Each data point is measured in duplicate, and at least two duplicate assays are performed for each individual compound determination. Enzyme is added to final concentrations of 10 nM or 20 nM, for example. A mixture of unlabeled ATP and γ-^33P ATP is added to start the reaction (2×10^6 cpm of γ-^33P ATP per well (3000 Ci/mmole) and 10 μM unlabeled ATP, typically. The reactions are carried out for 1 hour at room temperature with shaking. Plates are washed 7× with TBS, followed by the addition of 50 μL well scintillation fluid (Wallac). Plates are read using a Wallac Trilux counter. This is only one format of such assays; various other formats are possible, as known to one skilled in the art.
The above assay procedure can be used to determine the IC50 for inhibition and/or the inhibition constant, Ki. […] The IC50 value is estimated by preparing a 10 point curve using a ½ log dilution series (for example, a typical curve may be prepared using the following compound concentrations: 3 μM, 1 μM, 0.3 μM, 0.1 μM, 0.03 μM, 0.01 μM, 0.003 μM, 0.001 μM, 0.0003 μM and 0 μM).
JAK2 (h) is incubated with 8 mM MOPS pH 7.0, 0.2 mM EDTA, 100 μM […], 10 mM MgAcetate and [γ-^33P-ATP] […] The reaction is initiated by the addition of the MgATP mix. After incubation for 40 minutes at room temperature, the reaction is stopped by the addition of 3% phosphoric acid solution. 10 μL of the reaction is then spotted onto a P30 filtermat and washed three times for 5 minutes in 75 mM phosphoric acid and once in methanol prior to drying and scintillation counting.
The kinase assays described herein were performed at Millipore UK Ltd, Dundee Technology Park, Dundee DD2 1SW, UK.

T1 sequence (O60674 whole entry): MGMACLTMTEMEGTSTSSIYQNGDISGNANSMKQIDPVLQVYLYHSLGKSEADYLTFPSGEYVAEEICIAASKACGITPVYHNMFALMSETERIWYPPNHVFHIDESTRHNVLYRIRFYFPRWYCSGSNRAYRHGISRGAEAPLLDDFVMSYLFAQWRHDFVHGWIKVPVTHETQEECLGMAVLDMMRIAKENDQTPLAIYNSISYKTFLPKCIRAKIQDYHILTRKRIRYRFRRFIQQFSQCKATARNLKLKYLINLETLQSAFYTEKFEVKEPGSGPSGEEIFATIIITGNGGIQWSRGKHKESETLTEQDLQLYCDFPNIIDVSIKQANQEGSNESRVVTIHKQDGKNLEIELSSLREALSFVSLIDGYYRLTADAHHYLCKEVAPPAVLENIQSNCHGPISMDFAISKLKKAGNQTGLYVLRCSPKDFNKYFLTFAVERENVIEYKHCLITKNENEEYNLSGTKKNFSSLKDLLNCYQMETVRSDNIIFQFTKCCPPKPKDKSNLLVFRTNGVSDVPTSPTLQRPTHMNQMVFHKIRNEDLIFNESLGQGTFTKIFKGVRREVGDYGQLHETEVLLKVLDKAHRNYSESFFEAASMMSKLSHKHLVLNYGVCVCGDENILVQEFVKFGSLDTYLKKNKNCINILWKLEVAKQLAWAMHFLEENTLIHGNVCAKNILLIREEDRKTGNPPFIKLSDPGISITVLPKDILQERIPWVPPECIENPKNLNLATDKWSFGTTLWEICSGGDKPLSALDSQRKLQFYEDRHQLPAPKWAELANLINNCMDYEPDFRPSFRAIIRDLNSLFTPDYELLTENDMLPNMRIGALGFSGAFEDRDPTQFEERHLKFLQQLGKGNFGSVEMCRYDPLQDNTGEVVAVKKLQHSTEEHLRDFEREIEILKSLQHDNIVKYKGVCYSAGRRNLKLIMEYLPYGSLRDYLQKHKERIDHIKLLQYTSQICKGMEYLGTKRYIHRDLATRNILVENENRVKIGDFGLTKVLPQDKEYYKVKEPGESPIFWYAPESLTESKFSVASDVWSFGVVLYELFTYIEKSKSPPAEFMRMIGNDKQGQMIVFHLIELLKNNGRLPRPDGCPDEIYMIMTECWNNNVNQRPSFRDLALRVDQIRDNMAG

On to `CCC1CN(c2ccc(C#N)cn2)CCC1Nc1nc(Nc2ccn3c(C)cnc3c2)ncc1Cl` (stereo not drawn) [Example 2, 6-(4-((5-chloro-2-((3-methylimidazo[1,2-a]pyridin-7-yl)amino)pyrimidin-4-yl)amino)-3-ethylpiperidin-1-yl)nicotinonitrile], for which, in series [1], the “Clearance (CL) after iv dosing” value was found to be 8.5 mL/min/kg, the exposure AUC(0-t) was 1960 ng·h/mL, the half-life is 1.1 h and the Vd came to 0.73 L/kg. Besides, the bioavailability in series [1] was 50.2%. In series [2], this compound registered an IC50 of 3 nM.

Compound `CCC1CN(c2ccc(C#N)nn2)CCC1Nc1nc(Nc2ccn3c(C)cnc3c2)ncc1Cl` (stereo not drawn) [Example 3, 6-(4-((5-chloro-2-((3-methylimidazo[1,2-a]pyridin-7-yl)amino)pyrimidin-4-yl)amino)-3-ethylpiperidin-1-yl)pyridazine-3-carbonitrile] yielded an IC50 in series [2] of 2 nM. This counts as single-digit nanomolar.

As to `Cc1cnc2cc(Nc3ncc(Cl)c(NC4CCN(c5ccc(C#N)nn5)CC4)n3)ccn12` [Example 12, 6-(4-((5-chloro-2-((3-methylimidazo[1,2-a]pyridin-7-yl)amino)pyrimidin-4-yl)amino)piperidin-1-yl)pyridazine-3-carbonitrile], the midpoint of inhibition in series [2], the IC50, lay at 16 nM.

For the compound `N#Cc1ccc(N2CCC(Nc3nc(Nc4ccn5c(C(F)F)nnc5c4)ncc3Cl)CC2)nc1` [Example 30, 6-(4-((5-chloro-2-((3-(difluoromethyl)-[1,2,4]triazolo[4,3-a]pyridin-7-yl)amino)pyrimidin-4-yl)amino)piperidin-1-yl)nicotinonitrile], in series [1], the “Clearance (CL) after iv dosing” value turned out to be 2.83 mL/min/kg, the AUC(0-t) came out at 5130 ng·h/mL, the half-life was 2.61 h and the Vd is 0.61 L/kg. Also, the bioavailability in series [1] is 116%. The compound also showed a 50% inhibitory concentration (IC50) in series [2] of 10 nM.

`Cc1nc2cc(Nc3ncc(Cl)c(NC4CCN(c5ccc(C#N)cn5)CC4)n3)ccn2n1` [Example 32, 6-(4-((5-chloro-2-((2-methyl-[1,2,4]triazolo[1,5-a]pyridin-7-yl)amino)pyrimidin-4-yl)amino)piperidin-1-yl)nicotinonitrile]: in series [1], the “Clearance (CL) after iv dosing” value came out at 14.2 mL/min/kg, the AUC(0-t) is 2020 ng·h/mL, the half-life is 1.53 h and the Vd was 0.96 L/kg. Further, in series [1], the bioavailability worked out at 180%. In addition, inhibition in series [2] was half-maximal at 7 nM (IC50).

For `CC(C)(O)c1nc2cc(Nc3ncc(Cl)c(NC4CCN(c5ccc(C#N)cn5)CC4)n3)ccn2n1` [Example 39, 6-(4-((5-chloro-2-((2-(2-hydroxypropan-2-yl)-[1,2,4]triazolo[1,5-a]pyridin-7-yl)amino)pyrimidin-4-yl)amino)piperidin-1-yl)nicotinonitrile], in series [1], the “Clearance (CL) after iv dosing” value was found to be 5.83 mL/min/kg, the AUC(0-t) amounted to 2830 ng·h/mL, the half-life was 4.65 h and the Vd worked out at 1.25 L/kg. Besides, the bioavailability in series [1] came out at 52%. In addition, the IC50 in series [2] was 5 nM.

As to `CC(C)(O)c1nnc2cc(Nc3ncc(Cl)c(NC4CCN(c5ccc(C#N)cn5)CC4)n3)ccn12` [Example 40], the IC50 in series [2] is 1 nM.

Turning to `Cn1cnc2cc(Nc3ncc(Cl)c(NC4CCN(c5ccc(C#N)cn5)CC4)n3)ccc21` [Example 46, 6-(4-((5-chloro-2-((1-methyl-1H-benzo[d]imidazol-5-yl)amino)pyrimidin-4-yl)amino)piperidin-1-yl)nicotinonitrile], in series [1], the “Clearance (CL) after iv dosing” value came out at 4.83 mL/min/kg, the area under the curve AUC(0-t) is 3400 ng·h/mL, the half-life was 1.01 h and the Vd is 0.42 L/kg. The bioavailability in series [1] came out at 126%. Further, the 50% inhibitory concentration (IC50) in series [2] came out at 1 nM.

On to `Cn1nnc2cc(Nc3ncc(Cl)c(NC4CCN(c5ccc(C#N)nn5)CC4)n3)ccc21` [Example 47, 6-(4-((5-chloro-2-((l-methyl-1H-benzo[d][1,2,3]triazol-5-yl)amino)pyrimidin-4-yl)amino)piperidin-1-yl)pyridazine-3-carbonitrile], for which, in series [1], the “Clearance (CL) after iv dosing” value turned out to be 11.7 mL/min/kg, the AUC(0-t) is 1490 ng·h/mL, the half-life was 0.78 h and the Vd was 0.87 L/kg. Moreover, the bioavailability in series [1] worked out at 144%. In series [2], the IC50 amounted to 7 nM.

On to `Cc1nc2cc(Nc3ncc(Cl)c(NC4CCN(c5ccc(C#N)cn5)CC4)n3)ccc2n1C` [Example 48, 6-(4-((5-chloro-2-((1,2-dimethyl-1H-benzo[d]imidazol-5-yl)amino)pyrimidin-4-yl)amino)piperidin-1-yl)nicotinonitrile], for which, in series [1], the “Clearance (CL) after iv dosing” value worked out at 11.2 mL/min/kg, the AUC(0-t) amounted to 1510 ng·h/mL, the half-life is 1.08 h and the Vd amounted to 0.89 L/kg. Also, the bioavailability in series [1] turned out to be 79.4%. The IC50 in series [2] stood at 0.7 nM.

In turn, `CC(C)(O)c1nc2cc(Nc3ncc(Cl)c(NC4CCN(c5ccc(C#N)nn5)CC4)n3)ccn2n1` [Example 55, 6-(4-((5-chloro-2-((2-(2-hydroxypropan-2-yl)-[1,2,4]triazolo[1,5-a]pyridin-7-yl)amino)pyrimidin-4-yl)amino)piperidin-1-yl)pyridazine-3-carbonitrile] returned an IC50 in series [2] of 14 nM. This counts as double-digit nanomolar.

For `CC(O)Cc1nc2cc(Nc3ncc(Cl)c(NC4CCN(c5ccc(C#N)nn5)CC4)n3)ccn2n1` (stereo not drawn) [Example 56, 6-(4-((5-chloro-2-((2-(2-hydroxypropyl)-[1,2,4]triazolo[1,5-a]pyridin-7-yl)amino)pyrimidin-4-yl)amino)piperidin-1-yl)pyridazine-3-carbonitrile], half-maximal inhibition in series [2] (IC50) required 15 nM.

Regarding `N#Cc1ccc(N2CCC(Nc3nc(Nc4ccc5c(c4)nnn5CC4CC4)ncc3Cl)CC2)nc1` [Example 60, 6-(4-((5-chloro-2-((1-(cyclopropylmethyl)-1H-benzo[d][1,2,3]triazol-5-yl)amino)pyrimidin-4-yl)amino)piperidin-1-yl)nicotinonitrile], in series [2], the half-inhibitory concentration (IC50) worked out at 4 nM.

As to `CC(O)Cn1cnc2cc(Nc3ncc(Cl)c(NC4CCN(c5ccc(C#N)cn5)CC4)n3)ccc21` (stereo not drawn) [Example 61, 6-(4-((5-chloro-2-((1-(2-hydroxypropyl)-1H-benzo[d]imidazol-5-yl)amino)pyrimidin-4-yl)amino)piperidin-1-yl)nicotinonitrile], the midpoint of inhibition in series [2], the IC50, lay at 1 nM.

Turning to `CC(C)(O)Cc1nc2ccc(Nc3ncc(Cl)c(NC4CCN(c5ccc(C#N)cn5)CC4)n3)cn2n1` [Example 67, 6-(4-((5-chloro-2-((2-(2-hydroxy-2-methylpropyl)-[1,2,4]triazolo[1,5-a]pyridin-6-yl)amino)pyrimidin-4-yl)amino)piperidin-1-yl)nicotinonitrile], in series [1], the “Clearance (CL) after iv dosing” value amounted to 11.2 mL/min/kg, the area under the curve AUC(0-t) worked out at 1470 ng·h/mL, the half-life is 1.45 h and the Vd came to 1.25 L/kg. Also, the bioavailability in series [1] is 49.7%. The same compound registered a half-maximal inhibitory concentration (IC50) in series [2] of 39 nM.

In series [2], `CC(C)(O)Cc1nnc2cc(Nc3ncc(Cl)c(NC4CCN(c5ccc(C#N)cn5)CC4)n3)ccn12` [Example 74, 6-(4-((5-chloro-2-((3-(2-hydroxy-2-methylpropyl)-[1,2,4]triazolo[4,3-a]pyridin-7-yl)amino)pyrimidin-4-yl)amino)piperidin-1-yl)nicotinonitrile] had an IC50 of 4 nM.

Take `CC(C)(O)Cc1nnc2cc(Nc3ncc(Cl)c(NC4CCN(c5ccc(C#N)nn5)CC4)n3)ccn12` [Example 75, 6-(4-((5-chloro-2-((3-(2-hydroxy-2-methylpropyl)-[1,2,4]triazolo[4,3-a]pyridin-7-yl)amino)pyrimidin-4-yl)amino)piperidin-1-yl)pyridazine-3-carbonitrile]: inhibition in series [2] was half-maximal at 8 nM (IC50).
